Bridge positions count the residues as written; N and C are the ends. Square brackets hold non-standard residues; d marks the D form. Peptide text beside a SMILES is read from it. Nle = CCCC[C@H](N)C(=O)O

For orientation: IC50 means the concentration needed to halve the response being measured.

This assay deals with T1, human Kv1.3 voltage-gated K+ channel (Homo sapiens, UniProt P22001).
T1 construct: host or cells: CHO-DUKX
T1 sequence (P22001 whole entry): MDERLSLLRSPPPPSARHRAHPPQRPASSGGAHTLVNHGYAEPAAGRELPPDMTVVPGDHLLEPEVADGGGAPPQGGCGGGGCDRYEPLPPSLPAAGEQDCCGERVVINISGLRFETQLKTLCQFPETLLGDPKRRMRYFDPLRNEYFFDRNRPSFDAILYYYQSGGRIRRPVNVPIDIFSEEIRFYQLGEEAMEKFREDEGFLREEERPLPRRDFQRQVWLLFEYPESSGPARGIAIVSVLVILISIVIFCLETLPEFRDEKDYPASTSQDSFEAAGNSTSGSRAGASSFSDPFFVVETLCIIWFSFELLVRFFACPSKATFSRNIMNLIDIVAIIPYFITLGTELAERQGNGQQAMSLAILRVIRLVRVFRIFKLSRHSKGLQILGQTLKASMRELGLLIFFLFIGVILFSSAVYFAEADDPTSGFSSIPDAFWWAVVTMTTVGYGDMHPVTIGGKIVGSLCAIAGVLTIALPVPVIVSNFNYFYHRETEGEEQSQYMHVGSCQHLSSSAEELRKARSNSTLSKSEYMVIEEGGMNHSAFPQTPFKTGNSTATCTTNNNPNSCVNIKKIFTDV
The assay is described as follows: cell-based. The settings on record: inhibition of thallium flux, CHO-DUKX cells with human Kv1.3; read-out: IC50.
Take `CC[C@H](C)[C@@H]1NC(=O)[C@H](C)NC(=O)[C@H](CCCCN)NC(=O)[C@H](CC(C)C)NC(=O)[C@@H]2CSSC[C@@H](C(=O)N[C@@H](Cc3ccc(O)cc3)C(=O)N3CCC[C@H]3C(=O)N[C@@H](CCCNC(=N)N)C(=O)O)NC(=O)[C@H](CCCCN)NC(=O)[C@@H]3CSSC[C@H](NC(=O)[C@H](CCC(=O)O)NC(=O)[C@H](C(C)C)NC(=O)[C@H](CO)NC(=O)[C@H](C)NC(=O)[C@H](CO)NC(=O)[C@@H](NC(=O)[C@H](CCCNC(=N)N)NC(=O)[C@@H](NC(=O)[C@H](CC(=O)O)NC(=O)[C@H](CCSC)NC(=O)[C@@H](N)CC(N)=O)C(C)C)CSSC[C@H](NC(=O)[C@H](CCCCN)NC(=O)CNC(=O)[C@H](Cc4ccccc4)NC(=O)[C@H]([C@@H](C)CC)NC(=O)[C@H](CO)NC(=O)CNC1=O)C(=O)N[C@@H](CCSC)C(=O)N[C@@H](CC(N)=O)C(=O)N[C@@H](CCCCN)C(=O)N[C@@H](CCCCN)C(=O)N3)C(=O)N[C@@H](CCCCN)C(=O)N[C@@H](CCC(N)=O)C(=O)N[C@@H](CCCCN)C(=O)N2` [Compound 9] (H-NMDVRCSASVECKQKCLKAIGSIFGKCMNKKCKCYPR-OH; disulfide 6-27, 12-32, 16-34): the IC50 came out at 0.53 nM.

As to `CCCC[C@H](NC(=O)[C@@H]1CCCN1)C(=O)N[C@@H](CCC(=O)O)C(=O)N[C@@H](CCCC)C(=O)N[C@@H](CCCNC(=N)N)C(=O)N[C@H]1CSSC[C@@H]2NC(=O)[C@H](CCCCN)NC(=O)CNC(=O)[C@H](Cc3ccccc3)NC(=O)[C@H]([C@@H](C)CC)NC(=O)[C@H](CO)NC(=O)CNC(=O)[C@H]([C@@H](C)CC)NC(=O)[C@H](C)NC(=O)[C@H](C)NC(=O)[C@H](CC(C)C)NC(=O)[C@@H]3CSSC[C@@H](C(=O)N[C@@H](Cc4ccc(O)cc4)C(=O)N4CCC[C@H]4C(=O)N[C@@H](CCCNC(=N)N)C(=O)O)NC(=O)[C@H](CCCCN)NC(=O)[C@H](CSSC[C@H](NC(=O)[C@H](CCC(=O)O)NC(=O)[C@H](C(C)C)NC(=O)[C@H](Cc4ccccc4)NC(=O)[C@H](C)NC(=O)[C@H](CO)NC1=O)C(=O)N[C@@H](CCCCN)C(=O)N[C@@H](CCC(N)=O)C(=O)N[C@@H](CCCCN)C(=O)N3)NC(=O)[C@H](CCCCN)NC(=O)[C@H](CCCCN)NC(=O)[C@H](CC(N)=O)NC(=O)[C@H](CCCC)NC2=O` [Compound 145] (H-P[Nle]E[Nle]RCSAFVECKQKCLAAIGSIFGKC[Nle]NKKCKCYPR-OH; disulfide 6-27, 12-32, 16-34), the IC50 turned out to be 8.26 nM. For the molecule `CCCC[C@@H]1NC(=O)[C@@H]2CSSC[C@H](NC(C)=O)C(=O)N[C@@H](CO)C(=O)N[C@@H](C)C(=O)N[C@@H](CO)C(=O)N[C@@H](C(C)C)C(=O)N[C@@H](CCC(=O)O)C(=O)N[C@H]3CSSC[C@H](NC(=O)[C@H](CCCCN)NC(=O)[C@H](CCCCN)NC(=O)[C@H](CC(N)=O)NC1=O)C(=O)N[C@@H](CCCCN)C(=O)N[C@H](C(=O)N[C@@H](Cc1ccc(O)cc1)C(=O)N1CCC[C@H]1C(=O)N[C@@H](CO)C(N)=O)CSSC[C@H](NC(=O)[C@H](CCCCN)NC(=O)[C@H](CCC(N)=O)NC(=O)[C@H](CCCCN)NC3=O)C(=O)N[C@@H](CC(C)C)C(=O)N[C@@H](CCCCN)C(=O)N[C@@H](C)C(=O)N[C@@H]([C@@H](C)CC)C(=O)NCC(=O)N[C@@H](CO)C(=O)N[C@@H]([C@@H](C)CC)C(=O)N[C@@H](Cc1ccccc1)C(=O)NCC(=O)N[C@@H](CCCCN)C(=O)N2` [Compound 109] (Ac-CSASVECKQKCLKAIGSIFGKC[Nle]NKKCKCYPS-NH2; disulfide 1-22, 7-27, 11-29), the IC50 stood at 0.96 nM.

`CCCC[C@H](NC(=O)[C@@H]1CCCN1)C(=O)N[C@@H](CCC(=O)O)C(=O)N[C@@H](CCCC)C(=O)N[C@@H](CCCNC(=N)N)C(=O)N[C@H]1CSSC[C@@H]2NC(=O)[C@H](CCCCN)NC(=O)CNC(=O)[C@H](Cc3ccccc3)NC(=O)[C@H]([C@@H](C)CC)NC(=O)[C@H](CO)NC(=O)CNC(=O)[C@H]([C@@H](C)CC)NC(=O)[C@H](C)NC(=O)[C@H](C)NC(=O)[C@H](CC(C)C)NC(=O)[C@@H]3CSSC[C@@H](C(=O)N[C@@H](Cc4ccc(O)cc4)C(=O)N4CCC[C@H]4C(=O)N[C@@H](CCCNC(=N)N)C(=O)O)NC(=O)[C@H](CCCCN)NC(=O)[C@H](CSSC[C@H](NC(=O)[C@H](CCC(=O)O)NC(=O)[C@@H]4CCCN4C(=O)[C@H](CO)NC(=O)[C@H](C)NC(=O)[C@H](CO)NC1=O)C(=O)N[C@@H](CCCCN)C(=O)N[C@@H](CCC(N)=O)C(=O)N[C@@H](CCCCN)C(=O)N3)NC(=O)[C@H](CCCCN)NC(=O)[C@H](CCCCN)NC(=O)[C@H](CC(N)=O)NC(=O)[C@H](CCCC)NC2=O` [Compound 138] (H-P[Nle]E[Nle]RCSASPECKQKCLAAIGSIFGKC[Nle]NKKCKCYPR-OH; disulfide 6-27, 12-32, 16-34): the IC50 is 0.228 nM. As for “H-NMDMRCSASVECKQKCLKAIGSIFGKCMNKKCKCYPRHRRK-NH2 (disulfide 6-27, 12-32, 16-34) [Compound 24]”, the IC50 stood at 0.073 nM. For `CCCC[C@H](NC(=O)[C@@H]1CCCN1)C(=O)N[C@@H](CCC(=O)O)C(=O)N[C@@H](CCCC)C(=O)N[C@@H](CCCNC(=N)N)C(=O)N[C@H]1CSSC[C@@H]2NC(=O)[C@H](CCCCN)NC(=O)CNC(=O)[C@H](Cc3ccccc3)NC(=O)[C@H]([C@@H](C)CC)NC(=O)[C@H](CO)NC(=O)CNC(=O)[C@H]([C@@H](C)CC)NC(=O)[C@H](C)NC(=O)[C@H](C)NC(=O)[C@H](CC(C)C)NC(=O)[C@@H]3CSSC[C@@H](C(=O)N[C@@H](Cc4ccc(O)cc4)C(=O)N4CCC[C@H]4C(=O)N[C@@H](CCCNC(=N)N)C(=O)N[C@@H](CCC(=O)O)C(=O)O)NC(=O)[C@H](CCCCN)NC(=O)[C@H](CSSC[C@H](NC(=O)[C@H](CCC(=O)O)NC(=O)[C@H](C(C)C)NC(=O)[C@H](CO)NC(=O)[C@H](C)NC(=O)[C@H](CO)NC1=O)C(=O)N[C@@H](CCCCN)C(=O)N[C@@H](CCC(N)=O)C(=O)N[C@@H](CCCCN)C(=O)N3)NC(=O)[C@H](CCCCN)NC(=O)[C@H](CCCCN)NC(=O)[C@H](CC(N)=O)NC(=O)[C@H](CCCC)NC2=O` [Compound 126] (H-P[Nle]E[Nle]RCSASVECKQKCLAAIGSIFGKC[Nle]NKKCKCYPRE-OH; disulfide 6-27, 12-32, 16-34) the value was 6.49 nM.

Consider `CC[C@H](C)[C@@H]1NC(=O)[C@H](C)NC(=O)[C@H](CCCCN)NC(=O)[C@H](CC(C)C)NC(=O)[C@@H]2CSSC[C@@H](C(=O)N[C@@H](Cc3ccc(O)cc3)C(=O)N3CCC[C@H]3C(=O)N[C@@H](CCCNC(=N)N)C(=O)O)NC(=O)[C@H](CCCCN)NC(=O)[C@@H]3CSSC[C@H](NC(=O)[C@H](CCC(=O)O)NC(=O)[C@H](C(C)C)NC(=O)[C@H](CO)NC(=O)[C@H](C)NC(=O)[C@H](CO)NC(=O)[C@@H](NC(=O)[C@H](CCCNC(=N)N)NC(=O)[C@H](CCSC)NC(=O)[C@H](CC(=O)O)NC(=O)[C@H](CCSC)NC(=O)[C@H](CC(N)=O)NC(=O)CNC(=O)[C@@H](N)CO)CSSC[C@H](NC(=O)[C@H](CCCCN)NC(=O)CNC(=O)[C@H](Cc4ccccc4)NC(=O)[C@H]([C@@H](C)CC)NC(=O)[C@H](CO)NC(=O)CNC1=O)C(=O)N[C@@H](CCSC)C(=O)N[C@@H](CC(N)=O)C(=O)N[C@@H](CCCCN)C(=O)N[C@@H](CCCCN)C(=O)N3)C(=O)N[C@@H](CCCCN)C(=O)N[C@@H](CCC(N)=O)C(=O)N[C@@H](CCCCN)C(=O)N2` [Compound 13] (H-SGNMDMRCSASVECKQKCLKAIGSIFGKCMNKKCKCYPR-OH; disulfide 8-29, 14-34, 18-36), for which the IC50 worked out at 0.26 nM.
